Laboratory results published in US4914189A, “Synthetic GHRH analogs” (The Adminstrators of the Tulane Educational Fund, priority 1987, dated 1990).
Values joined by “and” are separate entries in the source; they are usually repeats but may differ in a detail not shown here. Identical values can stand only once.

Key:
release of pituitary GH = assay: In vivo release of pituitary GH after one single i.v. injection in female rats; set-up: species or system rat; details: for Relative Potency (based on the effect of hpGHRH at the actual time) / Responses in plasma GH in ng GH/ml: 1.0 ug/(female) rat i.v.; for Absolute Potency (based on the average value of the four samples at -1 min.): average GH level at -1 min. 63.5 ng GH/ml plasma
Description: Adult female rats were used and were anesthetized with pentobarbital (6 mg/100 g, b.w.), injected i/p. 20 minutes after the injection of pentobarbital; blood samples were taken from the jugular vein (pretreated level) and immediately thereafter hpGH-RH^1-29 (as a control) or GH-RH^1-29 analogs were injected i.v. Blood samples were taken from the jugular vein 5, 15, 60 minutes after the injection. The blood samples were centrifuged, plasma was removed and the GH level was measured by RIA.
In vivo Effects of synthetic GHRH analogs on the release
of pituitary GH following one single i.v. injection of 1.0

[1] = system: superfused pituitary cell system; assay: In vitro GH release, superfused pituitary cell system; type: cell-based, rat
Description: The compounds of the present invention were tested both in vitro in rat cell culture and in vivo in rats to determine GHRH activity. The protocols are as follows:
Twenty-four adult male or female Sprague-Dawley strain rats were decapitated for each experiment. After posterior lobes were removed, the anterior pituitaries were cut into small pieces and incubated in a Dubnoff incubator for 45 minutes at 37° C. in 10 ml. of oxygenated Medium 199 (GIBCO) containing 0.5% collagenase (Sigma Type 1), 0.25% bovine serum albumin (BSA) (Sigma RIA grade), and 5 μg./ml. Gentamicin Sulphate (Sigma). After this incubation, there were no apparent changes in the appearance of the tissue. However, the fragments could be easily dipsersed into single cells by repeated suction and expulsion from a Gilson Pipetman. After 30 to 60 Pipetman operations, the tissue fell apart; a second collagenase incubation was not usually necessary. The cell suspension was centrifuged at room temperature for 10 minutes at […]. The cell pellet was then resuspended in 1.0 ml. of medium. A small aliquot was diluted for counting the cells, and the rest or one suspension was divided into 2 equal volumes. Each volume (containing about 5× 10^6 cells, usually between 3.5 and 7.0×10^6) was mixed with 0.5 ml. Sephadex G-15 which had been equilibrated with previously oxygenated medium. The mixture of pituitary cells and Sephadex was transferred into 2 chambers of the superfusion apparatus and perfused with the medium. […]
ACTH radioimmunoassays were performed on 100 μl aliquots of undiluted superfusion medium essentially as described elsewhere (14); however, the separation of bound and free ACTH was accomplished by a polyethylene glycol facilitated second antibody method. Rat GH was measured in aliquots of undiluted or diluted superfusates to determine either basal or stimulated secretion. […]

release of GH = assay: In vivo release of GH in male testosterone primed rats, 4-point assay method; set-up: species or system rat; details: i.v., individual values
Description: In vivo effect of synthetic GHRH analogs on the release of
GH in male testosterone primed rats. Results were
calculated by the 4-point assay method.
Doses injected are in μg/100 g. b.w., i.v.

With “GH-RH^1-29: standard/control: fragment of the first 29 residues of human growth hormone releasing factor, amide” the “Relative Potency (based on the effect of hpGHRH at the actual time)” value (“Relative Potency” for short) (release of pituitary GH; time +5 min) was 100%, the “Responses in plasma GH in ng GH/ml” value (release of pituitary GH; time +5 min) was 248 ng/mL and the “Absolute Potency (based on the average value of the four samples at -1 min.)” value (shortened to “Absolute Potency”) (release of pituitary GH; time +5 min) was 390%. For the same substance, the “Relative Potency” value (release of pituitary GH; time +15 min) was 100%, the “Responses in plasma GH in ng GH/ml” value (release of pituitary GH; time +15 min) was 137 ng/mL and the “Absolute Potency” value (release of pituitary GH; time +15 min) was 215%. The “Relative Potency” value (release of pituitary GH; time +60 min) was 100%, the “Responses in plasma GH in ng GH/ml” value (release of pituitary GH; time +60 min) was 29 ng/mL and the “Absolute Potency” value (release of pituitary GH; time +60 min) was 45%. For the same substance, the “Relative Potency” value (release of pituitary GH; time -1 min (pretreated level)) was 100%, the “Responses in plasma GH in ng GH/ml” value (release of pituitary GH; time -1 min (pretreated level)) was 66 ng/mL and the “Absolute Potency” value (release of pituitary GH; time -1 min (pretreated level)) was 103%. The “Released GH Level Average” value ([1]; peptides administered for 3 minutes at 10M^-9 Concentration) was 40.00 ng/mL, the “Released GH Level” value ([1]; peptides administered for 3 minutes at 10M^-9 Concentration, individual values) was 62.50 ng/mL and 42.50 ng/mL and 20.50 ng/mL and 34.50 ng/mL and the Potency % ([1]; relative to GH-RH^1-29 standard, 3 minutes at 10M^-9 Concentration) was 100%. The “plasma Gh level” value (release of GH; 5 minutes after injection, dose 0.05 μg/100 g. b.w.) was 160 ng·mL and 540 ng·mL and 208 ng·mL and 191 ng·mL and 450 ng·mL and 286 ng·mL and 397 ng·mL, the “plasma Gh level” value (release of GH; 5 minutes after injection, dose 0.2 μg/100 g. b.w.) was 370 ng·mL and 620 ng·mL and 540 ng·mL and 610 ng·mL and 870 ng·mL and 410 ng·mL and 560 ng·mL and the “plasma Gh level” value (release of GH; 15 minutes after injection, dose 0.05 μg/100 g. b.w.) was 65 ng·mL and 241 ng·mL and 97 ng·mL and 70 ng·mL and 161 ng·mL and 145 ng·mL and 149 ng·mL. For the same substance, the “plasma Gh level” value (release of GH; 15 minutes after injection, dose 0.2 μg/100 g. b.w.) was 112 ng·mL and 280 ng·mL and 199 ng·mL and 261 ng·mL and 510 ng·mL and 161 ng·mL and 207 ng·mL.
